“And” between values parts separate entries of the source, which are not always exact repeats. Identical values can stand only once. Some results are limits rather than exact numbers.

Data on 18 compounds can be found in patent publication US20080176857A1, “4-Piperazinnylthieno[2,3-d]Pyrimidine Compounds as Platelet Aggregation Inhibitors” (priority 2005, published 2008).

The test concerns the target P2Y12 receptor (Homo sapiens, UniProt Q9H244). Description: [33P]-2MeS-ADP binding to recombinant human P2Y12 membranes (Assay 3). On the set-up: expressed in transfected cells; host or cells: HEK cells. The conditions noted are these: for IC50 / Ki: HEK cell membranes expressing human P2Y12, competition with 33P 2MeS-ADP; for % Inhibition / inhibition at 10 µM / inhibition at 1 µM: at highest concentration tested. The procedure:
3. Human P2Y12 Recombinant Cell Membrane Binding Assay with ^33P 2MeS-ADP.
The ability of a test compound to bind to the P2Y12 receptor was evaluated in a recombinant cell membrane binding assay. In this competitive binding assay, the test compound competed against a radiolabelled agonist for binding to the P2Y12 receptor, expressed on the cell membrane. Inhibition of binding of the labeled material was measured and correlated to the amount and potency of the test compound. Data from this assay are presented in Table F. This binding assay is a modification of the procedure in Takasaki, J. et. al, Mol. Pharmacol., 2001, Vol. 60, pg. 432.
HEK cells were transfected with the pDONR201P2Y12 vector and cultured in MEM with GlutaMAX I, Earle's salts, 25 mM HEPES (Gibco # 42360-032) containing 10% dialyzed FBS (Gibco # 26400-044), 100 μM nonessential amino acids (Gibco # 11140-050), 1 mM sodium pyruvate (Gibco # 11360-070), 0.05% geneticin (Gibco #10131-027), 3 μg/mL blasticidin (Fluka brand from Sigma # 15205), and 0.5 μg/mL puromycin (Sigma # P-8833).
Confluent cells were washed once with cold DPBS (Gibco # 14190-136). Fresh DPBS was added and the cells were scraped and centrifuged at 500×g for 5 minutes at 4° C. The cell pellets were resuspended in TEE buffer (25 mM Tris, 5 mM EDTA, 5 mM EGTA) containing 1 protease inhibitor cocktail tablet (Roche # 1 873 580) per 50 mL (called TEE+Complete) and can be flash frozen at this point.
In one embodiment, frozen cell pellets were used to prepare the membranes. In that embodiment, the frozen cell pellets were thawed on ice. In another embodiment, cell pellets may be used without flash freezing before moving on to the next step.
Cell pellets were resuspended in TEE buffer+Complete and homogenized in a glass dounce for 12 strokes. The cell suspension was centrifuged at 500×g for 5 minutes at 4° C. The supernatant was saved and centrifuged at 20,000×g for 20 minutes at 4° C. This supernatant was discarded and the cell pellet resuspended in TEE buffer+Complete and homogenized in a glass dounce for 12 strokes. This suspension was centrifuged at 20,000×g for 20 minutes at 4° C. and the supernatant discarded. The pellet was resuspended in assay buffer (50 mM Tris, 100 mM NaCl, 1 mM EDTA) containing one protease inhibitor cocktail tablet per 50 mL, and can be flash frozen as 1 mL aliquots at this point.
Dry compounds were diluted as 10 mM DMSO stocks and tested in a seven-point, three-fold dilution series run in triplicate beginning at 10 μM, final concentration. A 1 mM DMSO intermediate stock was made in a dilution plate and from this the seven dilutions were made to 5× the final concentration in assay buffer containing 0.02% BSA.
The plates were incubated at room temperature for 1 hour. The reaction was stopped using a cell harvester to transfer the reaction mixture onto GF/B UniFilter plates (Perkin Elmer # 6005177), and washed three times with wash buffer (50 mM Tris), filtering between each wash. The filter plates were dried for approximately 20 minutes in an oven at 50° C. Back seals were adhered to the filter plates and 25 uL of Microscint 20 scintillation fluid (Perkin Elmer # 6013621) were added. The filter plates were sealed, shaken for 30 minutes, and counted on a Top Count. Data were analyzed using a four-parameter curve fit with a fixed minimum and maximum experimentally defined as the average positive and negative controls on each plate, and with a hill slope equal to one.
The table below presents the IC50, Ki, and percent inhibition values for compounds tested in either washed human platelets membrane binding assay (assay #1 above) or recombinant cell membrane binding assay (Assay #3, above). Example number refers to the compound prepared as described in the example noted in the section Working Examples, above. The highest concentration of candidate compound tested is listed for each experimental run presented. […]

Sequence of P2Y12 receptor (Q9H244 whole entry): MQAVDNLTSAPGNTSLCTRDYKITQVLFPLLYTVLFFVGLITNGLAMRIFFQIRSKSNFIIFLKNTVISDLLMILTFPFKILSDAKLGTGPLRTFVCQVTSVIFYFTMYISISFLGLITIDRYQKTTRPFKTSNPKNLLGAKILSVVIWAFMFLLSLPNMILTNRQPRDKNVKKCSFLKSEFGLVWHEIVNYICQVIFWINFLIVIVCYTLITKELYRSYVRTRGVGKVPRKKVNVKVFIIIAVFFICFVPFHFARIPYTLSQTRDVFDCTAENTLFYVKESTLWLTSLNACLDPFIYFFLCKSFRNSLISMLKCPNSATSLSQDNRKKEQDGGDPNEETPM

One may read the IC50 as the concentration needed to halve the response being measured. In general, Ki refers to the equilibrium dissociation constant of an inhibitor or competing ligand from its target. As usually defined, the % Inhibition is the change of the read-out against control, counted positive when it falls. In general, inhibition refers to the drop in the measured response relative to a control, in per cent. With `CCc1cc2c(N3CCN(C(=O)Cc4ccccc4)CC3)nc(SCC(=O)OC)nc2s1` [Example 7, methyl ({6-ethyl-4-[4-(phenylacetyl)piperazin-1-yl]thieno[2,3-d]pyrimidin-2-yl}thio)acetate], the IC50 was 1020 nM and 380 nM and 420 nM and 320 nM; the Ki is 582 nM and 210 nM and 240 nM and 174 nM. In addition, under “10 μM”, the “% Inhibition” value was 89.51% and 95.92% and 94.06%; the inhibition at 10 µM is 92.9%.
Turning to `CCc1cc2c(N3CCN(C(=O)Cc4ccccc4)CC3)nc(S(=O)(=O)CC(=O)OC)nc2s1` [Example 8, Methyl ({6-ethyl-4-[4-(phenylacetyl)piperazin-1-yl]thieno[2,3-d]pyrimidin-2-yl}sulfonyl)acetate], the IC50 stood at 1200 nM; the Ki was 720 nM and 680 nM. For the same compound, for the setting “10 μM”, the “% Inhibition” value is reported as 81.44% and the inhibition at 10 µM was 81.3%.
Turning to `CCc1cc2c(N3CCN(C(=O)Cc4ccccc4)CC3)nc(SCC(=O)Nc3ccc4ccccc4c3)nc2s1` [Example 9, 2-({6-Ethyl-4-[4-(phenylacetyl)piperazin-1-yl]thieno[2,3-d]pyrimidin-2-yl}thio)-N-2-naphthylacetamide], the IC50 was > 10000 nM and 9300 nM; the Ki was > 5900 nM and 5400 nM.
Regarding `C=CCSc1nc(N2CCN(C(=O)Cc3ccccc3)CC2)c2cc(CC)sc2n1` [Example 10, 2-(Allylthio)-6-ethyl-4-[4-(phenylacetyl)piperazin-1-yl]thieno[2,3-d]pyrimidine], the half-maximal inhibitory concentration (IC50) was 990 nM and 550 nM; the Ki is 570 nM and 330 nM. In addition, for the setting “10 μM”, the “% Inhibition” value is 79.53% and the inhibition at 10 µM is 82.3%.
Regarding `CCc1cc2c(N3CCN(C(=O)Cc4ccccc4)CC3)nc(SC(C)C(=O)NCC(=O)O)nc2s1` (stereo not shown) [Example 11, N-[2-({6-Ethyl-4-[4-(phenylacetyl)piperazin-1-yl]thieno[2,3-d]pyrimidin-2-yl}thio)propanoyl]glycine], the IC50 is 330 nM and 230 nM and 270 nM and 328 nM; the Ki was 190 nM and 130 nM and 160 nM and 189 nM. Further, for the setting “1 μM”, the inhibition at 1 µM was 81%. For the same compound, where the note is “10 μM”, the “% Inhibition” value was 92.50% and 88.81%; the inhibition at 10 µM was determined as 90.5%.
As to `CCc1cc2c(N3CCN(C(=O)Cc4ccccc4)CC3)nc(SCC(O)CO)nc2s1` (stereo not shown) [Example 12, 3-({6-Ethyl-4-[4-(phenylacetyl)piperazin-1-yl]thieno[2,3-d]pyrimidin-2-yl}thio)propane-1,2-diol], the 50% inhibitory concentration (IC50) was 340 nM and 370 nM; the Ki was 200 nM and 210 nM. For the setting “10 μM”, the “% Inhibition” value is listed as 92.83% and the inhibition at 10 µM came to 83.4%.
Turning to `CCc1cc2c(N3CCN(C(=O)Cc4ccccc4)CC3)nc(SCC(=O)NC)nc2s1` [Example 13, 2-({6-Ethyl-4-[4-(phenylacetyl)piperazin-1-yl]thieno[2,3-d]pyrimidin-2-yl}thio)-N-methylacetamide], the IC50 is 280 nM and 530 nM; the Ki was 160 nM and 310 nM. Where the note is “10 μM”, the “% Inhibition” value came out at 88.77% and the inhibition at 10 µM came out at 88.2%.
For the compound `CCc1cc2c(N3CCN(C(=O)Cc4ccccc4)CC3)nc(SC(C)C(C)=O)nc2s1` (stereo not shown) [Example 14, 3-({6-Ethyl-4-[4-(phenylacetyl)piperazin-1-yl]thieno[2,3-d]pyrimidin-2-yl}thio)butan-2-one], the IC50 is 290 nM and 330 nM; the inhibition constant (Ki) was 160 nM and 200 nM. Under “10 μM”, the “% Inhibition” value was found to be 83.72% and the inhibition at 10 µM was determined as 89.9%.
Consider `CCc1cc2c(N3CCN(C(=O)Cc4ccccc4)CC3)nc(SCCNC(C)=O)nc2s1` [Example 15, N-[2-({6-Ethyl-4-[4-(phenylacetyl)piperazin-1-yl]thieno[2,3-d]pyrimidin-2-yl}thio)ethyl]acetamide], for which the IC50 stood at 300 nM and the Ki was 170 nM. Under “10 μM”, the “% Inhibition” value was 92.26% and the inhibition at 10 µM was determined as 87%.
As to `CCc1cc2c(N3CCN(C(=O)Cc4ccccc4)CC3)nc(SC[C@H](N)C(=O)OC)nc2s1` [Example 16, Methyl S-{6-ethyl-4-[4-(phenylacetyl)piperazin-1-yl]thieno[2,3-d]pyrimidin-2-yl}-L-cysteinate], the IC50 was 270 nM and 360 nM; the Ki is 150 nM and 210 nM. For the same compound, where the note is “10 μM”, the “% Inhibition” value is on record as 87.82% and the inhibition at 10 µM amounted to 88.7%.
For `CCc1cc2c(N3CCN(C(=O)Cc4ccccc4)CC3)nc(SCC(C)O)nc2s1` (stereo not shown) [Example 17, 1-({6-Ethyl-4-[4-(phenylacetyl)piperazin-1-yl]thieno[2,3-d]pyrimidin-2-yl}thio)propan-2-ol], the half-maximal inhibitory concentration (IC50) is 500 nM and 530 nM; the Ki is 290 nM and 310 nM. For the same compound, under “10 μM”, the “% Inhibition” value stood at 87.05% and the inhibition at 10 µM was 90.6%.
As for `CCc1cc2c(N3CCN(C(=O)c4ccc(-c5ccccc5)cc4)CC3)nc(Cl)nc2s1` [Example 21, 4-[4-(1,1′-Biphenyl-4-ylcarbonyl)piperazin-1-yl]-2-chloro-6-ethylthieno[2,3-d]pyrimidine], the IC50 is 22 nM and 10 nM and 20 nM and 43 nM; the inhibition constant (Ki) was 12 nM and 10 nM and 25 nM. Further, under “1 μM”, the “% Inhibition” value is 95.00% and the inhibition at 1 µM came out at 91.9%. Also, where the note is “10 μM”, the “% Inhibition” value was 98.24% and the inhibition at 10 µM stood at 95.8%.
As to `CCc1cc2c(N3CCN(C(=O)c4ccc(-c5ccccc5)cc4)CC3)nc(SCC(=O)OC)nc2s1` [Example 22, Methyl ({4-[4-(1,1′-biphenyl-4-ylcarbonyl)piperazin-1-yl]-6-ethylthieno[2,3-d]pyrimidin-2-yl}thio)acetate], the IC50 was 43 nM and 51 nM; the Ki was 25 nM and 28 nM. Under “10 μM”, the “% Inhibition” value amounted to 90.70% and the inhibition at 10 µM is 92.7%.
For the compound `CCc1cc2c(N3CCN(C(=O)Cc4ccccc4)CC3)nc(SCC(=O)Nc3ccccc3)nc2s1` [Example 23, 2-({6-Ethyl-4-[4-(phenylacetyl)piperazin-1-yl]thieno[2,3-d]pyrimidin-2-yl}thio)-N-phenylacetamide], under “10 μM”, the “% Inhibition” value turned out to be 75.04% and the inhibition at 10 µM was found to be 64.6%.
Take `CCc1cc2c(N3CCN(C(=O)Cc4ccccc4)CC3)nc(SCC(N)=O)nc2s1` [Example 24, 2-({6-Ethyl-4-[4-(phenylacetyl)piperazin-1-yl]thieno[2,3-d]pyrimidin-2-yl}thio)acetamide]: the IC50 was 190 nM and 240 nM; the Ki was 110 nM and 130 nM. Further, under “10 μM”, the “% Inhibition” value stood at 92.16% and the inhibition at 10 µM turned out to be 83.1%.
Consider `CCc1cc2c(N3CCN(C(=O)Cc4ccccc4)CC3)nc(SC(C)C(=O)O)nc2s1` (stereo not shown) [Example 25, 2-({6-Ethyl-4-[4-(phenylacetyl)piperazin-1-yl]thieno[2,3-d]pyrimidin-2-yl}thio)propanoic acid], for which the IC50 is 200 nM and 270 nM; the Ki is 110 nM and 150 nM. In addition, where the note is “10 μM”, the “% Inhibition” value worked out at 94.08% and the inhibition at 10 µM was determined as 88.6%.
As for `CCc1cc2c(N3CCN(C(=O)Cc4ccccc4)CC3)nc(SCCc3ccncc3)nc2s1` [Example 26, 6-Ethyl-4-[4-(phenylacetyl)piperazin-1-yl]-2-[(2-pyridin-4-ylethyl)thio]thieno[2,3-d]pyrimidine], the IC50 was found to be 800 nM; the Ki is 460 nM and 430 nM. Also, for the setting “10 μM”, the “% Inhibition” value is 88.94% and the inhibition at 10 µM is 88.7%.
Take `CCc1cc2c(N3CCN(C(=O)c4ccc(-c5ccccc5)cc4)CC3)nc(SCCNC(C)=O)nc2s1` [Example 27, N-[2-({4-[4-(1,1′-Biphenyl-4-ylcarbonyl)piperazin-1-yl]-6-ethylthieno[2,3-d]pyrimidin-2-yl}thio)ethyl]acetamide]: the IC50 was determined as 100 nM and the Ki turned out to be 58 nM. In addition, for the setting “10 μM”, the inhibition at 10 µM came out at 96.5%.
